Laboratory results from US9464049B2, “Indole-carboxamides” (Hoffmann-La Roche Inc., priority 2013, dated 2016).

How the values were obtained:
[1] = tested on: human embryonic stem cell derived neural stem cells (NSCs); assay: Neural stem cell proliferation assay (neurogenesis assay, ATP levels by CellTiterGlo); assay type: cell-based; conditions: Homo sapiens, Neural stem cell, 96 h; compound concentration at which 150% activity of control (100%) is reached; NSC proliferation by ATP (CellTiterGlo) after 4 days incubation; dose response 8 μM to 8 nM
Experimental: Neural Stem Cell Proliferation Assay
Neurogenic properties of small molecules are determined based on the proliferation of human embryonic stem cell derived neural stem cells (NSCs) which were derived via a dual smad inhibition as previously described (Chambers, S. M., et al., Highly efficient neural conversion of human ES and iPS cells by dual inhibition of SMAD signaling, Nature biotechnology, 2009. 27(3): p. 275-80.)
Compounds respond is measured by the increase in cells based on ATP levels (Promega:CellTiterGlo®) after an incubation period of 4 days.
NSCs are thawed and expanded over 3 passages. On the 14th day, NSCs are seeded in Polyornithin/Laminin coated 384 well plates at a cell density of 21,000 cells/cm^2 in a media volume of 38 μl.
4 hours after cell seeding, compound solutions are added at a volume of 2 μl. Stock solutions of the compounds (water, 5% DMSO) are diluted to obtain a dose response (11 points, dilution factor is 2), ranging from 8 μM to 8 nM. Controls are run to consistently determine the neurogenic properties of the cells: • Negative (neutral) control is cell culture Media (final DMSO concentration: 0.25%). • Positive controls are: • 1. cell culture Media+100 ng/ml FGF2 (final DMSO concentration: 0.1%) • 2. cell culture Media+20 ng/ml EGF (final DMSO concentration: 0.1%) • 3. cell culture Media+100 ng/ml Wnt3a (final DMSO concentration: 0.1%)
After 4 days incubation at 37° C., 5% CO2, the amount of ATP per well is quantified. The ATP concentration is proportional to the cell number. ATP is quantified by using the Promega CellTiterGlo® kit. The CellTiterGlo® reagents contain a cell lysis buffer, a thermo stable luciferase (UltraGlo™ recombinant luciferase), magnesium and luciferin. Luciferin reacts with ATP producing oxyluciferin, AMP and light. The luminescence signal is proportional to the ATP content.
The value of negative (neutral) control is determined for each assay plate by taking the average of 16 negative control wells. The neurogenic compound response is calculated for each compound as (compound/Negative Control)*100.
The values of EC150 from the dose response curve are determined for each test compound. The EC150 is the compound concentration at which 150% activity of control (100%) is reached.

Row | melting point [°C] | Compound | EC (150% of control) [1] [µM]
1 | 267.5 | N#Cc1cc(-c2ccc(Cl)cc2)c2[nH]c(C(N)=O)cc2c1 [Example 35, 7-(4-Chlorophenyl)-5-cyano-1H-indole-2-carboxamide] | 0.021
2 | 277.5 | N#Cc1cc(-c2ccc(C(F)(F)F)cc2)c2[nH]c(C(N)=O)cc2c1 [Example 36, 5-Cyano-7-[4-(trifluoromethyl)phenyl]-1H-indole-2-carboxamide] | 0.1
3 | 171 | Cn1c(C(N)=O)cc2cc(C#N)cc(-c3ccc(C(F)(F)F)cc3)c21 [Example 37, 5-Cyano-1-methyl-7-[4-(trifluoromethyl)-phenyl]-indole-2-carboxamide] | 2.62
4 | 299 | N#Cc1ccc(-c2cc(C#N)cc3cc(C(N)=O)[nH]c23)cc1 [Example 43, 5-Cyano-7-(4-cyanophenyl)-1H-indole-2-carboxamide] | 0.2
5 | 247 | N#Cc1cc(-c2ccc(OC(F)(F)F)cc2)c2[nH]c(C(N)=O)cc2c1 [Example 44, 5-Cyano-7-[4-(trifluoromethoxy)-phenyl]-1H-indole-2-carboxamide] | 0.17

Further lines, the compound ahead of its results:

Row | Compound | melting point [°C] | EC (150% of control) [1] [µM]
6 | Cn1c(C(N)=O)cc2cc(C#N)cc(-c3ccc(F)cc3)c21 [Example 38, 5-Cyano-7-(4-fluorophenyl)-1-methylindole-2-carboxamide] | 203.5 | 0.19
7 | Cn1c(C(N)=O)cc2cc(C#N)cc(-c3ccc(Cl)cc3)c21 [Example 39, 7-(4-Chlorophenyl)-5-cyano-1-methylindole-2-carboxamide] | 176 | 0.18
8 | Cn1c(C(N)=O)cc2cc(C#N)cc(-c3ccc(F)c(F)c3)c21 [Example 40, 5-Cyano-7-(3,4-difluorophenyl)-1-methylindole-2-carboxamide] | 184.5 | 0.2
9 | N#Cc1cc(-c2ccc(F)cc2F)c2[nH]c(C(N)=O)cc2c1 [Example 41, 5-Cyano-7-(2,4-difluorophenyl)-1H-indole-2-carboxamide] | 289.5 | 0.025
10 | N#Cc1cc(-c2ccc(Cl)cc2Cl)c2[nH]c(C(N)=O)cc2c1 [Example 42, 5-Cyano-7-(2,4-dichlorophenyl)-1H-indole-2-carboxamide] | 276.5 | 0.047
11 | Cc1c(C(N)=O)[nH]c2c(-c3ccc(F)cc3)cc(F)cc12 [Example 45, 5-Fluoro-7-(4-fluorophenyl)-3-methyl-1H-indole-2-carboxamide] | 219 | 0.068
12 | Cc1c(C(N)=O)[nH]c2c(-c3ccc(Cl)cc3)cc(F)cc12 [Example 46, 7-(4-Chlorophenyl)-5-fluoro-3-methyl-1H-indole-2-carboxamide] | 230 | 0.066
13 | Cc1c(C(N)=O)[nH]c2c(-c3ccc(F)c(F)c3)cc(F)cc12 [Example 47, 7-(3,4-Difluorophenyl)-5-fluoro-3-methyl-1H-indole-2-carboxamide] | 208 | 0.052
14 | Cc1c(C(N)=O)[nH]c2c(-c3ccc(C(F)(F)F)cc3)cc(F)cc12 [Example 48, 5-Fluoro-3-methyl-7-[4-(trifluoromethyl)-phenyl]-1H-indole-2-carboxamide] | 200 | 0.11
15 | Cc1c(C(N)=O)n(C)c2c(-c3ccc(F)cc3)cc(F)cc12 [Example 49, 5-Fluoro-7-(4-fluorophenyl)-1,3-dimethylindole-2-carboxamide] | 202 | 0.17
16 | Cc1c(C(N)=O)n(C)c2c(-c3ccc(Cl)cc3)cc(F)cc12 [Example 50, 7-(4-Chlorophenyl)-5-fluoro-1,3-dimethylindole-2-carboxamide] | 210 | 0.12
